Assay results reported in patent US6093732A, “4-hydroxyquinoline-3-carboxamides and hydrazides as antiviral agents” (Pharmacia & Upjohn Company, priority 1998, dated 2000).
Counter-ions that a name gives are not always drawn.

Biological target: T1, HCMV polymerase (Human cytomegalovirus, UniProt P08546)
T1 construct: made in house; host or cells: recombinant baculovirus-infected SF-9 cells
Assay: HCMV polymerase scintillation proximity assay (SPA), modified version
Type: biochemical
Settings: CMV polymerase; Table 1; modified assay with 4.5 mM DTT, compounds in 100% DMSO; read-out: Antiviral Selective Polymerase IC50 Values, CMV
Summary of the method: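 SPA measuring 3H-dTTP (90 nM) incorporation on 6 nM biotinylated poly(dA)-oligo(dT) by SF-9-expressed enzyme, pH 7.5 HEPES/KCl/MgCl2/BSA buffer with or without 2 mM CHAPS. Run at 25° C or 37° C, stopped with EDTA while linear (HCMV 30 min); IC50 from linear regression. Modified format adds 4.5 mM DTT, compounds diluted in 100% DMSO.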

T1 sequence (P08546 whole entry): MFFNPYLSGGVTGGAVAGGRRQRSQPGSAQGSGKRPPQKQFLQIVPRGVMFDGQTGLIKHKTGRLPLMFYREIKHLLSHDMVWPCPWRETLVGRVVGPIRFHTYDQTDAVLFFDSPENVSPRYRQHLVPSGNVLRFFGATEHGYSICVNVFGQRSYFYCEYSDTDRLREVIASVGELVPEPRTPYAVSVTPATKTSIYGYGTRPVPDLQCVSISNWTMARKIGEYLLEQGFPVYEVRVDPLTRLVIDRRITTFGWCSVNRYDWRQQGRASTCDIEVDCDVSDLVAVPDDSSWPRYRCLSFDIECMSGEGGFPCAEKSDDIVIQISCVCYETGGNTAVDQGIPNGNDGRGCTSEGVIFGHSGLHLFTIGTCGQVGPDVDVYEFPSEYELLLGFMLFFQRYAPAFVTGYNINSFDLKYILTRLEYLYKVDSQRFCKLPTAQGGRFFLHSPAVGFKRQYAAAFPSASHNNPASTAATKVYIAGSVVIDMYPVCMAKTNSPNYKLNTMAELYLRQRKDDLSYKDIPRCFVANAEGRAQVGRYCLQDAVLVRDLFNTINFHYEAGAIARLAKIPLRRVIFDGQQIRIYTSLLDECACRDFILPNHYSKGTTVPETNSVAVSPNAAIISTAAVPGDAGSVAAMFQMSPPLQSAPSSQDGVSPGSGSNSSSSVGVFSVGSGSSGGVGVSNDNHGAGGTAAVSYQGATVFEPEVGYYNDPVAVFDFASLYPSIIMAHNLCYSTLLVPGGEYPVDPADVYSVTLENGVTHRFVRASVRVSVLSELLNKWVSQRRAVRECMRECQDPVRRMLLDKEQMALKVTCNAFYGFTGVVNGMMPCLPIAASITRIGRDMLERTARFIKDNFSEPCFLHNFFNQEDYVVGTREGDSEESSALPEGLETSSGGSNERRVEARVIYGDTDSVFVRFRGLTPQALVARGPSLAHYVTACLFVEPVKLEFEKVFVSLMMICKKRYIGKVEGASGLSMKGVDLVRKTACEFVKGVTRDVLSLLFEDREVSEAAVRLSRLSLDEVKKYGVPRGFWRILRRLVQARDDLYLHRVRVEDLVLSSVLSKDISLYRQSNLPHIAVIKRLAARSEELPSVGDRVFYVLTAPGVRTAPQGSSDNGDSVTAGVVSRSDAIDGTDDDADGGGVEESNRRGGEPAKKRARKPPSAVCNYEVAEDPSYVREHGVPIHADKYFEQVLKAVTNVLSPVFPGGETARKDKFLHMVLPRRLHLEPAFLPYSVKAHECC

IC50 [µM] | Compound
7 | O=C(CN1CCOCC1)OCCCc1cc(F)c2ncc(C(=O)NCc3ccc(Cl)cc3)c(O)c2c1 [Example 147, 3-(3-([(4-Chlorobenzyl)amino]carbonyl}-8-fluoro-4-hydroxy-6-quinolinyl)propyl 2-morpholinoacetate]
6.3 | CC(C)C(N)C(=O)OCCCc1cc(F)c2ncc(C(=O)NCc3ccc(Cl)cc3)c(O)c2c1 (stereo not drawn) [Example 149, 3-(3-{[(4-Chlorobenzyl)amino]carbonyl}-8-fluoro-4-hydroxy-6-quinolinyl)propyl 2-amino-3-methylbutanoate]
4.8 | O=C(Nc1ccccc1)OCC#Cc1cc(F)c2ncc(C(=O)NCc3ccc(Cl)cc3)c(O)c2c1 [Example 150, 3-(3-{[(4-Chlorobenzyl)amino]carbonyl}-8-fluoro-4-hydroxy-6-quinolinyl)-2-propynyl phenylcarbamate]
0.91 | CCCc1ccc2ncc(C(=O)NCc3ccc(Cl)cc3)c(O)c2c1 [Example 151, N-(4-Chlorobenzyl)-4-hydroxy-6-propyl-3-quinolinecarboxamide]
5.4 | CC(O)C#Cc1ccc2ncc(C(=O)NCc3ccc(Cl)cc3)c(O)c2c1 (stereo not drawn) [Example 152, N-(4-Chlorobenzyl)-4-hydroxy-6-(3-hydroxy-1-butynyl)-3-quinolinecarboxamide]
8.3 | CC(=O)/C=C/c1cc(F)c2ncc(C(=O)NCc3ccc(Cl)cc3)c(O)c2c1 [Example 153, N-(4-Chlorobenzyl)-8-fluoro-4-hydroxy-6-[(E)-3-oxo-1-butenyl]-3-quinolinecarboxamide]
3.4 | O=C(NCc1ccc(Cl)cc1)c1cnc2c(F)cc(CCCCCO)cc2c1O [Example 154, N-(4-Chlorobenzyl)-8-fluoro-4-hydroxy-6-(5-hydroxypentyl)-3-quinolinecarboxamide]
15.9 | NCCCCC(N)C(=O)OCCCc1cc(F)c2ncc(C(=O)NCc3ccc(Cl)cc3)c(O)c2c1 (stereo not drawn) [Example 156, 3-(3-{[(4-Chlorobenzyl)amino]carbonyl}-8-fluoro-4-hydroxy-6-quinolinyl)propyl 2,6-diaminohexanoate, trifluoroacetic acid salt]
< 0.78 | O=C(NCc1ccc(Cl)cc1)c1cnc2c(F)cc(CN3CCOCC3)cc2c1O [Example 158, N-(4-Chlorobenzyl)-8-fluoro-4-hydroxy-6-(4-morpholinylmethyl)-3-quinolinecarboxamide]
5 | O=C(Nc1ccccc1)OCCCc1cc(F)c2ncc(C(=O)NCc3ccc(Cl)cc3)c(O)c2c1 [Example 159, 3-(3-{[(4-Chlorobenzyl)amino]carbonyl}-8-fluoro-4-hydroxy-6-quinolinyl)propyl phenylcarbamate]
1.2 | CC(=O)CCc1cc(F)c2ncc(C(=O)NCc3ccc(Cl)cc3)c(O)c2c1 [Example 160, N-(4-Chlorobenzyl)-8-fluoro-4-hydroxy-6-(3-oxobutyl)-3-quinolinecarboxamide]
0.59 | O=C(NCc1ccc(Cl)cc1)c1cnc2ccc(COCCO)cc2c1O [Example 163, N-(4-Chlorobenzyl)-4-hydroxy-6-[(2-hydroxyethoxy)methyl]-3-quinolinecarboxamide]
2.3 | O=C(NCc1ccc(Cl)cc1)c1cnc2ccc(COC(CO)CO)cc2c1O [Example 164, N-(4-Chlorobenzyl)-4-hydroxy-6-{[2-hydroxy-1-(hydroxymethyl)ethoxy]methyl}-3-quinolinecarboxamide]
6.7 | COC(=O)c1ccc2ncc(C(=O)NCc3ccc(Cl)cc3)c(O)c2c1 [Example 165, Methyl 3-{[(4-chlorobenzyl)amino]carbonyl}-4-hydroxy-6-quinolinecarboxylate]
7 | O=C(NCc1ccc(Cl)cc1)c1cnc2ccc(CO)cc2c1O [Example 166, N-(4-Chlorobenzyl)-4-hydroxy-6-(hydroxymethyl)-3-quinolinecarboxamide]
5 | Cc1cc(Cl)cc2c(O)c(C(=O)NCc3ccc(Cl)cc3)cnc12 [Example 167, 6-Chloro-N-[(4-chlorophenyl)methyl]-4-hydroxy-8-methyl-3-quinolinecarboxamide]
3.7 | O=C(NCc1ccc(Cl)cc1)c1cnc2cc(F)c(F)cc2c1O [Example 169, N-[(4-Chlorophenyl)methyl]-6,7-difluoro-4-hydroxy-3-quinolinecarboxamide]
4.4 | CSc1cc(F)c2ncc(C(=O)NCc3ccc(Cl)cc3)c(O)c2c1 [Example 170, N-(4-Chlorobenzyl)-8-fluoro-4-hydroxy-6-(methylsulfanyl)-3-quinolinecarboxamide]
1.9 | O=C(NCc1ccc(Cl)cc1)c1cnc2c(F)cc(SCCO)cc2c1O [Example 171]

IC50 [µM] | Compound
35.1 | NCCSc1cc(F)c2ncc(C(=O)NCc3ccc(Cl)cc3)c(O)c2c1 [Example 172, 6-[(2-Aminoethyl)sulfanyl]-N-(4-chlorobenzyl)-8-fluoro-4-hydroxy-3-quinolinecarboxamide, hydrobromide]
12.8 | COCCOCSc1cc(F)c2ncc(C(=O)NCc3ccc(Cl)cc3)c(O)c2c1 [Example 173, N-(4-Chlorobenzyl)-8-fluoro-4-hydroxy-6-{[(2-methoxyethoxy)-methyl]sulfanyl}-3-quinolinecarboxamide]
28.9 | O=C(NCc1ccc(Cl)cc1)c1cnc2c(F)cc(SCCN3CCOCC3)cc2c1O [Example 174]
7.2 | C[S+]([O-])c1cc(F)c2ncc(C(=O)NCc3ccc(Cl)cc3)c(O)c2c1 (stereo not drawn) [Example 175, N-(4-Chlorobenzyl)-8-fluoro-4-hydroxy-6-(methylsulfinyl)-3-quinolinecarboxamide]
11.4 | CS(=O)(=O)c1cc(F)c2ncc(C(=O)NCc3ccc(Cl)cc3)c(O)c2c1 [Example 176, N-(4-Chlorobenzyl)-8-fluoro-4-hydroxy-6-(methylsulfonyl)-3-quinolinecarboxamide]
7.2 | O=C(NCc1ccc(Cl)cc1)c1cnc2c(F)cc([S+]([O-])CCO)cc2c1O (stereo not drawn) [Example 177, N-(4-Chlorobenzyl)-8-fluoro-4-hydroxy-6-[(2-hydroxyethyl)sulfinyl]-3-quinolinecarboxamide]
28.2 | O=C(NCc1ccc(Cl)cc1)c1cnc2c(F)cc(C(=O)N3CCOCC3)cc2c1O [Example 180, N-(4-Chlorobenzyl)-8-fluoro-4-hydroxy-6-(4-morpholinylcarbonyl)-3-quinolinecarboxamide]
39.2 | O=C(NCCO)c1cc(F)c2ncc(C(=O)NCc3ccc(Cl)cc3)c(O)c2c1 [Example 181, N^3-(4-Chlorobenzyl)-8-fluoro-4-hydroxy-N^6-(2-hydroxyethyl)-3,6-quinolinedicarboxamide]
5 | CN(C)C(=O)c1cc(F)c2ncc(C(=O)NCc3ccc(Cl)cc3)c(O)c2c1 [Example 182, N^3-(4-Chlorobenzyl)-8-fluoro-4-hydroxy-N^6,N^6-dimethyl-3,6-quinolinedicarboxamide]
32 | O=C(NCCc1ccc(O)cc1)c1cc(F)c2ncc(C(=O)NCc3ccc(Cl)cc3)c(O)c2c1 [Example 183, N^3-(4-Chlorobenzyl)-8-fluoro-4-hydroxy-N^6-(4-hydroxyphenethyl)-3,6-quinolinedicarboxamide]
30.4 | NC(=O)c1cc(F)c2ncc(C(=O)NCc3ccc(Cl)cc3)c(O)c2c1 [Example 184, N^3-(4-Chlorobenzyl)-8-fluoro-4-hydroxy-3,6-quinolinedicarboxamide]
32.8 | O=C(NCc1ccc(Cl)cc1)c1cc(F)c2ncc(C(=O)NCc3ccc(Cl)cc3)c(O)c2c1 [Example 185, N^3,N^6 -Bis(4-chlorobenzyl)-8-fluoro-4-hydroxy-3,6-quinolinedicarboxamide]
13.8 | Nc1cc(F)c2ncc(C(=O)NCc3ccc(Cl)cc3)c(O)c2c1 [Example 186, 6-Amino-N-(4-chlorobenzyl)-8-fluoro-4-hydroxy-3-quinolinecarboxamide]
17.7 | COc1ccc(S(=O)(=O)Nc2cc(F)c3ncc(C(=O)NCc4ccc(Cl)cc4)c(O)c3c2)cc1 [Example 187, N-(4-Chlorobenzyl)-8-fluoro-4-hydroxy-6-{[(4-methoxyphenyl)-sulfonyl]amino}-3-quinolinecarboxamide]
2.1 | O=C(NCc1ccc(Cl)cc1)c1cnc2ccc(NCCO)cc2c1O [Example 188, N-(4-Chlorobenzyl)-4-hydroxy-6-[(2-hydroxyethyl)amino]-3-quinolinecarboxamide]
19.4 | CCN(CCO)c1ccc2ncc(C(=O)NCc3ccc(Cl)cc3)c(O)c2c1 [Example 189, N-(4-Chlorobenzyl)-6-[ethyl(2-hydroxyethyl)amino]-4-hydroxy-3-quinolinecarboxamide]
2.7 | O=C(NCc1ccc(Cl)cc1)c1cnc2ccc(N3CCOC3=O)cc2c1O [Example 190, N-(4-Chlorobenzyl)-4-hydroxy-6-(2-oxo-1,3-oxazolidin-3-yl)-3-quinolinecarboxamide]
1.6 | O=C(NCc1ccc(Cl)cc1)c1cnc2c(F)cc(S(=O)(=O)NCc3cccc4ccccc34)cc2c1O [Example 192, N-(4-Chlorobenzyl)-8-fluoro-4-hydroxy-6-{[(1-naphthylmethyl)aminor]-sulfonyl}-3-quinolinecarboxamide]

Compound | IC50 [µM]
CC(C)C(NC(=O)OC(C)(C)C)C(=O)OCCCc1cc(F)c2ncc(C(=O)NCc3ccc(Cl)cc3)c(O)c2c1 (stereo not drawn) [Example 146, 3-(3-{[(4-Chlorobenzyl)amino]carbonyl}-8-fluoro-4-hydroxy-6-quinolinyl)propyl 2-[(tert-butoxycarbonyl)amino]-3-methylbutanoate] | 38.7
CC(C)(C)OC(=O)NCCCCC(NC(=O)OC(C)(C)C)C(=O)OCCCc1cc(F)c2ncc(C(=O)NCc3ccc(Cl)cc3)c(O)c2c1 (stereo not drawn) [Example 155, 3-(3{[(4-Chlorobenzyl)amino]carbonyl}-8-fluoro-4-hydroxy-6-quinolinyl)propyl 2,6-bis[(tert-butoxycarbonyl)amino]hexanoate] | ≥ 50
